# According to patent US20040235922A1, “Compositions and methods for inducing adipose tissue cell death” (priority 2003, published 2004):
# “Also recorded” adds a separate entry of the source. Marks after values point to notes of the source that are not given here.
# Experiments:
# [1] = test system: female and male WT and GDF-8 KO mice; test: Adipose, muscle and heart tissue weights in WT and GDF-8 KO mice (Example 2); conditions: 200 ppm in diet, 21 days
# [2] = 21 day oral (diet) treatment of mice: body weight, food intake, feed efficiency, body temperature, body composition by PIXImus densitometry (Example 1); format: in vivo; conditions: 21 days, ICR mice
# Experimental: (§1) The effects of clenbuterol, a β2-AR agonist, and ractopamine, a β1/β2-AR agonist, on growth, adiposity and adipose tissue apoptosis in male and female mice have been tested by feeding diets containing control, 200 ppm clenbuterol, or 200 or 800 ppm ractopamine. Food intake (FI) was measured daily; body weight (BW) and temperatures (BT) were measured on days 0, 3, 7, 10, 14, 17, and 20. On day 21 mice were sacrificed, body composition was determined using PIXImus densitometry, and muscle and adipose tissues were collected. There were no treatment effects on BT, FI, BW, feed efficiency or body composition. Retroperitoneal (Rp) and epididymal/parametrial (Epi/Par) fat pad masses were reduced in both 800 ppm ractopamine (40±3 and 207±20 mg, respectively) and clenbuterol (35±7 and 211±22 mg) treated mice compared to control (66±8 and 319±30 mg, p<0.05). Brown adipose tissue (BAT) mass was greater (p<0.05) in clenbuterol treated mice compared to other treatments. Adipose tissue apoptosis (% DNA fragmentation) was increased in Epi/Par fat pads in clenbuterol (5.2+1.1%) and 800 ppm ractopamine (4.1±0.8%) treated mice compared to control (1.7+0.4%, p<0.05).
# (§2) Animals: Five week old male (n=20) and female (n=20) ICR mice (Harlan Research Laboratories, Indianapolis, Ind.) were allowed to acclimate for one week prior to the experiment start date. Animals were housed singly in suspended wire cages and were provided ground rodent chow (ProLab® RMH 2500; Purina Mills, St. Louis, Mo.) and water ad libitum. Ambient room temperature was maintained and the light/dark cycle was 0600/1800 hours, respectively. Animals were cared for in accordance with the Guide for the Care and Use of Laboratory Animals (Institute of Laboratory Animal Resources Commission on Life Sciences National Research Council. Guide for the Care and Use of Laboratory Animals. National Academy of Sciences, 1996). Prior to the start of the study, animals were briefly anesthetized with isofluorane and an IPPT-200 transponder (programmable ID and temperature, BMDS, Seaford, Del.) was implanted subcutaneously between the scapulae.
# (§3) Materials: Test articles included clenbuterol (Sigma Chemical Company, St. Louis, Mo., item # C5423) and ractopamine hydrochloride—Paylean® 9 (Elanco Animal Health, Indianapolis, Ind.). Clenbuterol is available as a pure product, and ractopamine is readily available as a type A medicated article. Paylean® 9 contains about 20 g ractopamine hydrochloride per kilogram in a ground corncob base. In order to achieve doses of 200 and 800 ppm it was necessary to add about […] of product per kilogram of diet. Control and clenbuterol diets were prepared with about 80 g of alphacel, which is a diluent used to mimic the effect of the corncob in the ractopamine product. The dose of clenbuterol used in this experiment was similar to those used in previous experiments with mice (Agbenyega E T, and Wareham A C. Effect of clenbuterol on skeletal muscle atrophy in mice induced by the glucocorticoid dexamethasone. Comp Biochem Physiol Comp Physiol 1992;102:141-145, Rothwell N. J., and Stock M J. Modification of body composition by clenbuterol in normal and dystrophic (mdx) mice. Biosci Rep 1985;5:755-760, Hyltander A, Svaninger G, and Lundholm K. The effect of clenbuterol on body composition in spontaneously eating tumour-bearing mice. Biosci Rep 1993;13:325-331, Hayes A, and Williams DA. Long-term clenbuterol administration alters the isometric contractile properties of skeletal muscle from normal and dystrophin-deficient mdx mice. Clin Exp Pharmacol Physiol 1994;21:757-765, Dupont-Versteegden EE. Exercise and clenbuterol as strategies to decrease the progression of muscular dystrophy in mdx mice. J Appl Physiol 1996;80:734-741).
# Daily Observations: Food intake was measured daily, while body weight and body temperatures were measured on days 0, 3, 7, 10, 14, 17, and 20 at approximately the same time of day (1300 hours) during the treatment period. […]
# [3] = test system: male and female ICR mice; test: 21 day oral (diet) treatment of mice: selected tissue weights, fat pads, BAT, muscle, organs (Example 1); format: in vivo; conditions: 21 days; for Brown adipose tissue (BAT) mass compared to control/other treatments: 200 ppm clenbuterol in diet; for Brown adipose tissue (BAT) mass compared to control/other treatments / Rp and Epi/Par fat pad weights compared to control: p<0.05; for Rp and Epi/Par fat pad weights compared to control: 200 ppm clenbuterol, 800 ppm ractopamine in diet
# Experimental: as §1, §2
# as §3, with “1996;80:734-741). […]” for “1996;80:734-741).”
# [4] = 200 ppm in diet, male and female mice
structure (smiles),measurement,setting,value
"CC(C)(C)NCC(O)c1cc(Cl)c(N)c(Cl)c1 (stereo not drawn) [Clenbuterol, clenbuterol]",EPI/PAR (and RP) fat pad weights compared to control,[1],decreased; also recorded: reduced
same,Heart weight compared to control,[1],increased
same,Weights of dissected skeletal muscles,[1],did not affect; also recorded: no effect
same,EPI/PAR (and RP) fat pad weights compared to control,[1]; listed as clenbuterol,reduced; also recorded: smaller
same,Heart weight compared to control,[1]; listed as clenbuterol,significantly increased
same,Cumulative Feed Intake,[2]; 200 ppm in diet,6.10 g
same,Densitometry Bone Mineral Content,[2]; 200 ppm in diet,0.65 g
same,Densitometry Fat,[2]; 200 ppm in diet,2.81 g
same,Densitometry Lean,[2]; 200 ppm in diet,26.80 g
same,Feed Efficiency,[2]; 200 ppm in diet,14.4
same,Final Body Weight,[2]; 200 ppm in diet,32.1 g
same,Weight Gain,[2]; 200 ppm in diet,8.90 g
same,"Effect on body temperature, food intake, body weight, feed efficiency, body composition",[2]; diet,not significantly affected; also recorded: Neither clenbuterol nor ractopamine affected
same,Brown adipose tissue (BAT) mass compared to control/other treatments,[3],increased BAT mass
same,Brown adipose tissue (BAT) mass compared to control/other treatments,[3]; listed as clenbuterol,greater; also recorded: significantly increased
same,Rp and Epi/Par fat pad weights compared to control,[3],decreased mass of Rp and Epi/Par fat pads in females only
same,Rp and Epi/Par fat pad weights compared to control,[3]; listed as clenbuterol,reduced
same,"BAT tissue weight, mean",[3]; [4],.124
same,"Biceps tissue weight, mean",[3]; [4],.145
same,"Epi/Par tissue weight, mean",[3]; [4],.211
same,"Heart tissue weight, mean",[3]; [4],.164
same,"Ing tissue weight, mean",[3]; [4],.150
same,"Kidney tissue weight, mean",[3]; [4],.582
same,"Liver tissue weight, mean",[3]; [4],2.14
same,"Rp tissue weight, mean",[3]; [4],.035
same,Retroperitoneal (Rp) fat pad mass,"[3]; 200 ppm in diet, mice, control 66±8 mg",35 ± 7 mg
same,Epididymal/parametrial (Epi/Par) fat pad mass,"[3]; 200 ppm in diet, mice, control 319±30 mg",211 ± 22 mg
same,"Muscle mass / muscle weight, body protein or fat content","[3]; diet, ICR mice",no effect
same,"Par weight, mean","[3]; females, 200 ppm in diet",.18^b
same,"Epi weight, mean","[3]; males, 200 ppm in diet",.24^ab
